Experimental findings from patent publication US20240025907A1, “QUINAZOLINE PAN-KRas INHIBITORS” (Mirati Therapeutics, Inc., priority 2022, published 2024) are described below.

Holding throughout (format): cell-based
The subject of assay [1] is KRas-mediated Phosphorylation of ERK in AsPC-1 cells. The assay can be described thus: Cisbio HTRF pERK assay, AsPC-1 cells. Particulars: for IC50: 3 hrs compound, read-out: Inhibition (HTRF IC50 nM) of KRas-mediated Phosphorylation of ERK, AsPC-1; for inhibition at 0.1 µM: ASPC1, single point at 100 nM. In general terms: Time-resolved FRET reads energy transfer from a long-lived donor to a nearby acceptor.

The subject of assay [2] is KRas-mediated Phosphorylation of ERK in H358 cells. The assay can be described thus: Cisbio HTRF pERK assay, H358 cells. Particulars: for IC50: H358 cells, 3 hrs compound, read-out: Inhibition (HTRF IC50 nM) of KRas-mediated Phosphorylation of ERK, H358; for inhibition at 0.1 µM: NCI-H358, H358 cells, single point at 100 nM.
Assay [3] concerns KRas-mediated Phosphorylation of ERK in H727 cells. Kind of assay: Cisbio HTRF pERK assay, H727 cells. Particulars: for IC50: 3 hrs compound, read-out: Inhibition (HTRF IC50 nM) of KRas-mediated Phosphorylation of ERK, H727; for inhibition at 0.1 µM: NCI-H727, single point at 100 nM.
The test system of assay [4] is KRas-mediated Phosphorylation of ERK in A549 cells. The assay can be described thus: Cisbio HTRF pERK assay, A549 cells. The settings on record: for IC50: A549 cells, 3 hrs compound, read-out: Inhibition (HTRF IC50 nM) of KRas-mediated Phosphorylation of ERK, A549; for inhibition at 0.1 µM: A549, A549 cells, single point at 100 nM.
The subject of assay [5] is KRas-mediated Phosphorylation of ERK in HCT116 cells. Kind of assay: Cisbio HTRF pERK assay, HCT116 cells. The settings on record: for IC50: HCT116 cells, 3 hrs compound, read-out: Inhibition (HTRF IC50 nM) of KRas-mediated Phosphorylation of ERK, HCT116; for inhibition at 0.1 µM: HCT-116, HCT116 cells, single point at 100 nM.
Assay [6] deals with KRas-mediated Phosphorylation of ERK in PSN1 cells. The assay can be described thus: Cisbio HTRF pERK assay, PSN1 cells. The settings on record: 3 hour compound, read-out: Inhibition (HTRF IC50 nM) of KRas-mediated Phosphorylation of ERK, PSN1. The protocol: Inhibition of KRas Phosphorylation of ERK (HTRF) by Exemplary Compounds of Formula (I) • Cisbio HTRF Advanced pERK Assay Catalog #64AERPEH • Cell: MKN1, PSN1 • Procedure: • Day 1: Seed 6,000 cells/well −25 μl/well in 384-well white solid bottom plate; RPM1_10% FBS.

For assay [7], the system named is KRas-mediated Phosphorylation of ERK in H460 cells. Kind of assay: Cisbio HTRF pERK assay, H460 cells. The settings on record: for IC50: H460 cells, 3 hrs compound, read-out: Inhibition (HTRF IC50 nM) of KRas-mediated Phosphorylation of ERK, H460; for inhibition at 0.1 µM: NCI-H460, H460 cells, single point at 100 nM.

Read-outs that look alike come from different tables or passages of the source.

One may read the IC50 as the concentration needed to halve the response being measured. With `N#Cc1c(N)sc2c(F)ccc(-c3c(Cl)cc4c(N5CCCn6nc(N)c(Cl)c6C5)nc(OC[C@@]56CCCN5C[C@H](F)C6)nc4c3F)c12` (atropisomer, axis not shown; (aS)) [Example 188, 2-amino-4-((R)-4-(2-amino-3-chloro-7,8-dihydro-4H-pyrazolo[1,5-a][1,4]diazepin-5(6H)-yl)-6-chloro-8-fluoro-2-(((2R,7aS)-2-fluorotetrahydro-1H-pyrrolizin-7a(5H)-yl)methoxy)quinazolin-7-yl)-7-fluorobenzo[b]thiophene-3-carbonitrile], the half-maximal inhibitory concentration (IC50) in assay [1] was 3 nM; in assay [2], 2 nM; in assay [3], 10 nM; in assay [4], 14 nM; in assay [5], 18 nM; in assay [6] it was 544 nM. In assay [7], the IC50 stood at 13 nM.

In the case of `CN(C)C(=O)n1cc2c(n1)CCCN(c1nc(OC[C@@]34CCCN3C[C@H](F)C4)nc3c(F)c(-c4ccc(F)c5sc(N)c(C#N)c45)c(Cl)cc13)C2` [Example 185, 5-((R)-7-(2-amino-3-cyano-7-fluorobenzo[b]thiophen-4-yl)-6-chloro-8-fluoro-2-(((2R,7aS)-2-fluorotetrahydro-1H-pyrrolizin-7a(5H)-yl)methoxy)quinazolin-4-yl)-N,N-dimethyl-5,6,7,8-tetrahydropyrazolo[4,3-c]azepine-2(4H)-carboxamide], the concentration for half-maximal inhibition (IC50) in assay [1] turned out to be 2 nM; in assay [2], 1 nM; in assay [3], 3 nM; in assay [4], 12 nM; in assay [5] it was 17 nM; in assay [6] it was 1800 nM. Also, in assay [7], the IC50 was 9 nM.

On to `CN(C)C(=O)c1cc2n(n1)CCCN(c1nc(OC[C@@]34CCCN3C/C(=C\F)C4)nc3c(F)c(-c4ccc(F)c5sc(N)c(C#N)c45)c(Cl)cc13)C2` (atropisomer, axis not shown) [Example 195, 5-((R)-7-(2-amino-3-cyano-7-fluorobenzo[b]thiophen-4-yl)-6-chloro-8-fluoro-2-(((S,Z)-2-(fluoromethylene)tetrahydro-1H-pyrrolizin-7a(5H)-yl)methoxy)quinazolin-4-yl)-N,N-dimethyl-5,6,7,8-tetrahydro-4H-pyrazolo[1,5-a][1,4]diazepine-2-carboxamide], for which the half-maximal inhibitory concentration (IC50) was determined as 1 nM in assay [2]; 2 nM in assay [3]; 2 nM in assay [4]; 6 nM in assay [5]; 115 nM in assay [6] (Homo sapiens, PSN1, 3 h); 2 nM in assay [7].

For the molecule `N#Cc1c(N)sc2c(F)ccc(-c3c(Cl)cc4c(N5C[C@@H]6C(=O)NC(=O)[C@@H]6C5)nc(OC[C@@]56CCCN5C[C@H](F)C6)nc4c3F)c12` [Example 200, 2-amino-4-(6-chloro-4-((3aR,6aS)-4,6-dioxohexahydropyrrolo[3,4-c]pyrrol-2(1H)-yl)-8-fluoro-2-(((2R,7aS)-2-fluorotetrahydro-1H-pyrrolizin-7a(5H)-yl)methoxy)quinazolin-7-yl)-7-fluorobenzo[b]thiophene-3-carbonitrile], the IC50 in assay [1] (Homo sapiens, ASPC1, 3 h) is 2740 nM; in assay [2] (Homo sapiens, NCI-H358, 3 h) it was 1680 nM; in assay [3] (Homo sapiens, NCI-H727, 3 h), 4730 nM; in assay [4] (Homo sapiens, A549, 3 h), over 10000 nM; in assay [5] (Homo sapiens, HCT-116, 3 h), 4560 nM; in assay [7] (Homo sapiens, NCI-H460, 3 h), 2760 nM.

The term inhibition denotes the drop in the measured response relative to a control, in per cent. High values mean a response far below the control, low ones a response near the control. Regarding `CCc1c(F)ccc2cc(O)cc(-c3c(F)cc4c(N5CCCn6nc(C(=O)N(C)C)c(Cl)c6C5)nc(OC[C@@]56CCCN5C[C@H](F)C6)nc4c3F)c12` [Example 78, 3-chloro-5-(7-(8-ethyl-7-fluoro-3-hydroxynaphthalen-1-yl)-6,8-difluoro-2-(((2R,7aS)-2-fluorohexahydro-1H-pyrrolizin-7a-yl)methoxy)quinazolin-4-yl)-N,N-dimethyl-5,6,7,8-tetrahydro-4H-pyrazolo[1,5-a][1,4]diazepine-2-carboxamide], the inhibition at 0.1 µM in assay [1] (Homo sapiens) amounted to 98%; in assay [2] (Homo sapiens), 96%; in assay [3] (Homo sapiens), 75%; in assay [4] (Homo sapiens) it was 94%; in assay [5] (Homo sapiens) it was 75%; in assay [7] (Homo sapiens), 81%.

As to `N#Cc1c(N)sc2c(F)ccc(-c3c(Cl)cc4c(N5CC6CCC(C5)N6)nc(OC[C@@]56CCCN5C/C(=C\F)C6)nc4c3F)c12` [Example 179, (S)-4-(4-((1R,5S)-3,8-diazabicyclo[3.2.1]octan-3-yl)-6-chloro-8-fluoro-2-(((S,Z)-2-(fluoromethylene)tetrahydro-1H-pyrrolizin-7a(5H)-yl)methoxy)quinazolin-7-yl)-2-amino-7-fluorobenzo[b]thiophene-3-carbonitrile], the IC50 is 116 nM in assay [1]; 2610 nM in assay [2]; 6810 nM in assay [3]; 3140 nM in assay [4]; 3770 nM in assay [5]; 2320 nM in assay [7].

Take `CCc1c(F)ccc2cc(O)cc(-c3c(F)cc4c(N5CCCn6nc(C(=O)N7CCN(C)CC7)cc6C5)nc(OC[C@@]56CCCN5C[C@H](F)C6)nc4c3F)c12` [Example 76, (5-(7-(8-ethyl-7-fluoro-3-hydroxynaphthalen-1-yl)-6,8-difluoro-2-(((2R,7aS)-2-fluorohexahydro-1H-pyrrolizin-7a-yl)methoxy)quinazolin-4-yl)-5,6,7,8-tetrahydro-4H-pyrazolo[1,5-a][1,4]diazepin-2-yl)(4-methylpiperazin-1-yl)methanone]: the inhibition at 0.1 µM in assay [1] (Homo sapiens) worked out at 90%; in assay [2] (Homo sapiens), 90%; in assay [3] (Homo sapiens), 43%; in assay [4] (Homo sapiens), 42%; in assay [5] (Homo sapiens) it was 16%; in assay [7] (Homo sapiens), 31%.

Take `CCc1c(F)ccc2cc(O)cc(-c3c(F)cc4c(N5CCCC6(CCO6)C5)nc(OCC5(CN(C)C)CC5)nc4c3F)c12` (centres unmarked) [Example 82, 4-(2-((1-((dimethylamino)methyl)cyclopropyl)methoxy)-6,8-difluoro-4-(1-oxa-6-azaspiro[3.5]nonan-6-yl)quinazolin-7-yl)-5-ethyl-6-fluoronaphthalen-2-ol]: the inhibition at 0.1 µM came out at 72% in assay [1] (Homo sapiens); 80% in assay [2] (Homo sapiens); 34% in assay [3] (Homo sapiens); 33% in assay [4] (Homo sapiens); 24% in assay [5] (Homo sapiens); 63% in assay [7] (Homo sapiens).

Regarding `CCc1c(F)ccc2cc(O)cc(-c3ccc4c(N5CCCC6(CCO6)C5)nc(OC[C@@]56CCCN5C[C@H](F)C6)nc4c3F)c12` (stereo partly drawn) [Example 71, 5-ethyl-6-fluoro-4-(8-fluoro-2-(((2R,7aS)-2-fluorohexahydro-1H-pyrrolizin-7a-yl)methoxy)-4-(1-oxa-6-azaspiro[3.5]nonan-6-yl)quinazolin-7-yl)naphthalen-2-ol], the inhibition at 0.1 µM in assay [1] (Homo sapiens) came to 90%; in assay [2] (Homo sapiens), 94%; in assay [3] (Homo sapiens), 65%; in assay [4] (Homo sapiens), 82%; in assay [5] (Homo sapiens), 38%; in assay [7] (Homo sapiens), 87%.

For `CN(C)C(=O)c1cc2n(n1)CCCN(c1nc(OC[C@@]34CCCN3C/C(=C\F)C4)nc3c(F)c(-c4ccc(F)c5sc(N)c(C#N)c45)c(Cl)cc13)C2` (atropisomer, axis not shown) [Example 194, 5-((S)-7-(2-amino-3-cyano-7-fluorobenzo[b]thiophen-4-yl)-6-chloro-8-fluoro-2-(((S,Z)-2-(fluoromethylene)tetrahydro-1H-pyrrolizin-7a(5H)-yl)methoxy)quinazolin-4-yl)-N,N-dimethyl-5,6,7,8-tetrahydro-4H-pyrazolo[1,5-a][1,4]diazepine-2-carboxamide], the IC50 in assay [1] (Homo sapiens, ASPC1, 3 h) worked out at 192 nM; in assay [2], 128 nM; in assay [3] it was 342 nM; in assay [4] it was 605 nM; in assay [5] it was 896 nM; in assay [7] it was 427 nM.
